In article PMC6287599, “2,6-Bis(2-Benzimidazolyl)Pyridine (BBP) Is a Potent and Selective Inhibitor of Small Conductance Calcium-Activated Potassium (SK) Channels” (Frontiers in Pharmacology, 2018):
“Also recorded” adds a separate entry of the source.

Target: T1, Kv4.3/KCHIP2 (Homo sapiens, UniProt Q9UK17)
T1 sequence (Q9UK17 1-655): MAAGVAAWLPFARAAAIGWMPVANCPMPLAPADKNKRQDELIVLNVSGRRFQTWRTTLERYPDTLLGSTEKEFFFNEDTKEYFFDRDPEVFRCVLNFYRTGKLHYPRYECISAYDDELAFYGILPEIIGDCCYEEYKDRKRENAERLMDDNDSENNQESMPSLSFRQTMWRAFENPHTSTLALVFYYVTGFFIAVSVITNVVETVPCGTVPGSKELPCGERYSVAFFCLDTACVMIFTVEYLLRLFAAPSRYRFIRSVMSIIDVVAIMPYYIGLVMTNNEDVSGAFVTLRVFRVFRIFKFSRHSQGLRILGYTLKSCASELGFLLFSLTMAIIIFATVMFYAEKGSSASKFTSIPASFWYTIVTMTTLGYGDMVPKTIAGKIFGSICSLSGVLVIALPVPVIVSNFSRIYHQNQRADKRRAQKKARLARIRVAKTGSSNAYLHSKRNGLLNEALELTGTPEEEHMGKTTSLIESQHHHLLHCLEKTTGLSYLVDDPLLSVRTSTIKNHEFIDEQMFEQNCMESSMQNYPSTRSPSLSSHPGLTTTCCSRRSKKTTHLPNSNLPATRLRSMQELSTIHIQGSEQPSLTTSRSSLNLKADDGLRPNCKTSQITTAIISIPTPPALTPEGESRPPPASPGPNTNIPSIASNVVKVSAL
T1 sequence (Q9NS61 1-270 partner): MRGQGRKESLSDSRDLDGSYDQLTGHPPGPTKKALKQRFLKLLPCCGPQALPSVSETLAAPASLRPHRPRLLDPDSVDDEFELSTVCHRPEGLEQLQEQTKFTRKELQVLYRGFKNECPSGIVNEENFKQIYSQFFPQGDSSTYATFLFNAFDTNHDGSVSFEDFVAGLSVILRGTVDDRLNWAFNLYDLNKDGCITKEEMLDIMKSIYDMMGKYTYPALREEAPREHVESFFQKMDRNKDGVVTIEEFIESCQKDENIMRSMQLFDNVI
Assay: Two-electrode voltage clamp in Xenopus laevis oocytes, Kv4.3/KCHIP2
Type: cell-based
Details: BBP 10 μM, TEVC, n = 5
Procedure: cRNA was prepared from linearized plasmids using the mMESSAGE mMACHINE T7 kit (Ambion, USA) and quantified by UV spectroscopy (NanoDrop, Thermo Scientific, Wilmington, USA). Xenopus laevis oocytes were acquired from EcoCyte Bioscience (Castrop-Rauxel, Germany). Oocytes were injected with 50 nL cRNA and currents were recorded after 2 days of incubation at 19°C. Currents were recorded at a sampling rate of 10 kHz using a TEVC amplifier (Dagan CA-1B; IL, USA), and borosilicate glass recording electrodes (Module Ohm, Herlev, Denmark), made with a DMZ Universal Puller (Zeitz Instruments, Martinsried, Germany) with a resistance of 0.5–1 MΩ when filled with 2 M KCl. Oocytes were superfused with Kulori (pH 7.4) solution containing NaCl 90 mM, KCl 4 mM, MgCl2 1 mM, CaCl2 1 mM, 4-(2-hydroxyethyl)-1-piperazineethanesulfonic acid 5 mM, and currents were elicited with the voltage protocols previously indicated (Skarsfeldt et al., [2016]), from a holding potential of −80 mV. […]
To assess the effect of BBP on other calcium-activated potassium channels (hBK, hSK3 WT, rSK3 H491N, and hIK), each individual current was first normalized to its cell size using membrane's capacitance (pA/pF) before statistical analysis. […] Statistical significance between saline and the effect of both BBP and the corresponding reference compound was determined for each channel using one-way ANOVA analysis. […]

For `c1cc(-c2nc3ccccc3[nH]2)nc(-c2nc3ccccc3[nH]2)c1` [BBP, 2,6-Bis(2-benzimidazolyl)pyridine], the “Effect on Kv4.3/KCHIP2 current” value was “did not have any effect; also recorded: did not significantly affect”.
